Results on 12 compounds are retold here after US11964988B2, “Fused heterocyclic compounds as RET kinase inhibitors” (ARRAY BIOPHARMA INC., priority 2018, dated 2024).

One experiment has as its target RET kinase V804M (Homo sapiens, UniProt P07949, V804M). Briefly: RET Enzyme Assay (CisBio HTRF KinEASE-TK), V804M. The class given is biochemical. The settings on record: read-out: RET V804M Enz FRET IC50. (In general: In TR-FRET formats the signal depends on donor and acceptor labels being close together.)
Another experiment addresses G810S mutant RET kinase (Homo sapiens, UniProt P07949, G810S). Briefly: biochemical.
Experiment [1] addresses T1, HEK-293 cells expressing a Kif5b-RET fusion protein (Homo sapiens, UniProt P07949).
T1 construct: KIF5B (N-terminal portion incl. coiled-coil); expressed in transfected cells; host or cells: HEK-293; the other entry of the earlier key: KIF5B (P33176, Kinesin-1 heavy chain)
T1 sequence (P07949 713-1063 limits assumed): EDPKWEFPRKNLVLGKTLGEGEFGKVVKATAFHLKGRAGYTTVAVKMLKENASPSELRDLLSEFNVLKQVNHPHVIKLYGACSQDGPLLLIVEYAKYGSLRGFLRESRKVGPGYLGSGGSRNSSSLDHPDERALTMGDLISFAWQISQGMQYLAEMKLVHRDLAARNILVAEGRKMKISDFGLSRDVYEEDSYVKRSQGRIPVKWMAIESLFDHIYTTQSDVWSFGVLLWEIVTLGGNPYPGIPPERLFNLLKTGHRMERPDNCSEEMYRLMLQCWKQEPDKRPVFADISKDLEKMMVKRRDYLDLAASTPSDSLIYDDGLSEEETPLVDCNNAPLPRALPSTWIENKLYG
Briefly: RET Cell Assay (phospho-RET Tyr1062). The settings on record: HEK-293 Kif5b-RET, 1 hour incubation, phospho-RET normalized to GAPDH; read-out: KIF5B-RET pTYR1062 Cell IC50. The class given is cell-based. How it is done:
(§1) The cellular potency of compounds inhibiting RET kinase were determined in HEK-293 cells expressing a Kif5b-RET fusion protein. Briefly, HEK-293 cells expressing a Kif5b-RET fusion protein were plated at 50K cells/well in 96 well poly-D-Lysine coated plates the day prior to the assay. The cells were incubated for 1 hour with test compound in DMEM (Dulbecco's Modified Eagle Medium) at a final DMSO concentration of 0.5%. […] After 1 hour the media was removed, the cells were fixed with 3.8% formaldehyde for 20 min, washed with PBS, and permeabilized for 10 min with 100% methanol. The plates were then washed with PBS-0.05% Tween20, and blocked with LI-COR Blocking solution (LI-COR Catalog No. 927-40000) for 1 hour. Plates were washed with PBS-0.05% Tween20, then incubated with anti-phospho-RET (Tyr1062) (Santa Cruz Catalog No. sc-20252-R) antibody and anti-GAPDH (Millipore Catalog No. MAB374) antibody for 2 hours. The plates were washed with PBS-0.05% Tween20, and incubated with anti-rabbit 680 (Molecular Probes Catalog No. A21109) and anti-mouse 800 (LI-COR Catalog No. 926-32210) secondary antibodies for 1 hour. All antibodies were diluted in LI-COR Block containing 0.05% Tween. The plates were washed with PBS-0.05% Tween20,100 μL PBS is added to each well, and the plates were read on a LI-COR Aerius fluorescent plate reader. The phospho-RET signal was normalized to the GAPDH signal. […] The POC values were fit to a 4 parameter logistic curve. The IC50 value is the point where the curve crosses 50 POC.

The target in the next experiment is G810R mutant RET kinase (Homo sapiens, UniProt P07949, G810R). Briefly: biochemical.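 Further: HTRF KinEASE-TK enzymatic assay with 1 nM recombinant RET G810R, 1 h at 22 °C, dual-wavelength ratiometric readout, 100% control without compound, 0% from pre-quenched reactions.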
For experiment [2], the target named is T2, HEK-293 cells expressing a G810R mutant RET Kif5b-RET fusion protein (Homo sapiens, UniProt P07949, G810R).
T2 construct: KIF5B (N-terminal portion incl. coiled-coil); expressed in transfected cells; host or cells: HEK-293; the other entry of the earlier key: KIF5B (P33176, Kinesin-1 heavy chain)
T2 sequence (P07949 713-1063 G810R limits assumed): T1 sequence (P07949 713-1063 limits assumed) with G98R
As to the kind of experiment: RET G810R Mutant Cell Assay (phospho-RET Tyr1062). The class given is cell-based. The settings on record: HEK-293 Kif5b-RET G810R, 1 hour incubation, phospho-RET normalized to GAPDH. How it is done:
as §1, with “expressing a G810R or G810S mutant RET Kif5b-RET fusion” for “expressing a Kif5b-RET fusion”, “μL PBS was added to” for “μL PBS is added to”, “POC values are fit to” for “POC values were fit to”

The next experiment concerns the target RET kinase Wild Type (Homo sapiens, UniProt P07949). Briefly: biochemical.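 Further: HTRF kinase activity assay on RET enzyme, 1 h reaction at 22 °C, dual-wavelength readout as percent of control, DMSO-only wells as 100%, pre-quenched reactions as 0%.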

Numbering of substitutions follows the chain as printed. pIC50: −log10 of the molar value.

Sequence of G810S mutant RET kinase (P07949 29-1114 G810S): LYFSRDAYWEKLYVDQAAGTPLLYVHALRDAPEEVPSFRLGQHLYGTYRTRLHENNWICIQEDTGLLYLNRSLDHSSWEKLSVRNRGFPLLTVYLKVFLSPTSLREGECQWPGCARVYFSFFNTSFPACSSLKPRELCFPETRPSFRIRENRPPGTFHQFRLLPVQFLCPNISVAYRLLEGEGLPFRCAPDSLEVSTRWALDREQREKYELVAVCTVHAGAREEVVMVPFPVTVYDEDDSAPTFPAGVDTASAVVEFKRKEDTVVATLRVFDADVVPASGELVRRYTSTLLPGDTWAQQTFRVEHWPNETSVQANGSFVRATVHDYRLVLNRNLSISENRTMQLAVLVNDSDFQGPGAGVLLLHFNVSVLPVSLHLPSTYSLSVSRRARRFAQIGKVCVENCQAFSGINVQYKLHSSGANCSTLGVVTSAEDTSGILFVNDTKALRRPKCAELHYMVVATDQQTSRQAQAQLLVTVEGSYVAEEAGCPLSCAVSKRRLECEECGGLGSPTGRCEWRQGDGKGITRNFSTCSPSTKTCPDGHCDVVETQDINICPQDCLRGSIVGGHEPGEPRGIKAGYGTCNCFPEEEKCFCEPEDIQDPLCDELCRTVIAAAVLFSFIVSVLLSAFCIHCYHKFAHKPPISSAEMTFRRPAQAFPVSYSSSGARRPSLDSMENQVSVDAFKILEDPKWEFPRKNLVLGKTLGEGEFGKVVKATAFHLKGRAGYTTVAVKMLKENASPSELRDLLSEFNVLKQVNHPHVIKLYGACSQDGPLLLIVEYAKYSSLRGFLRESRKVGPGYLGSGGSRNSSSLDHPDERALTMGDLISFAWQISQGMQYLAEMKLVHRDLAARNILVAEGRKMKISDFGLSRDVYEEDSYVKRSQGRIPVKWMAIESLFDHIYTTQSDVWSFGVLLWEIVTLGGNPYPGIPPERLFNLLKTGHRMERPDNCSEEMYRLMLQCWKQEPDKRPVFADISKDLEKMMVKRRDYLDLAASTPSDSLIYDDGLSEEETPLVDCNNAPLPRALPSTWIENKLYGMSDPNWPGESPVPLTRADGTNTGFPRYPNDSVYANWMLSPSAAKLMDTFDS
Sequence of RET kinase Wild Type (P07949 29-1114): as the sequence (P07949 29-1114 G810S) above, with S782G counted along it
Sequence of RET kinase V804M (P07949 29-1114 V804M): as the sequence (P07949 29-1114 G810S) above, with V776M, S782G counted along it
Sequence of G810R mutant RET kinase (P07949 29-1114 G810R): as the sequence (P07949 29-1114 G810S) above, with S782R counted along it
Method for G810R mutant RET kinase: (§2) The potency of compounds inhibiting several different RET kinase forms (Wild Type, V804M, G810R, & G810S) were determined using CisBio's HTRF® KinEASE™-TK assay technology. […] After a 1 hour incubation at 22° C., the extent of reaction was determined using a PerkinElmer EnVision multimode plate reader via HTRF dual wavelength detection, and the percent of control (POC) was calculated using a ratiometric emission factor. One hundred POC was determined using DMSO only samples (no compound present), and 0 POC was determined using pre-quenched control reactions.
The potency of a compound inhibiting G810R or G810S mutant RET kinase was determined using CisBio's HTRF® KinEASE™-TK assay technology. The assays contained G810R or G810S mutant RET produced at Array Biopharma, Inc. (1 nM enzyme). […] After a 1-h incubation at 22° C., the extent of reaction was determined using a PerkinElmer EnVision multimode plate reader via HTRF dual wavelength detection, and the percent of control (POC) was calculated using a ratiometric emission factor. One hundred POC was determined using no test compounds, and 0 POC was determined using pre-quenched control reactions.
Method for RET kinase Wild Type: as §2

The pIC50 is the negative decadic logarithm of the IC50, by convention in mol/L. Regarding `CCN1Cc2c(c3c(N)ncnc3n2C(C)C)-c2noc(C3CC3)c2C1=O` [Example 1, 11-amino-3-cyclopropyl-5-ethyl-7-isopropyl-6,7-dihydroisoxazolo[4,3-c]pyrimido[5′,4′:4,5]pyrrolo[3,2-e]azepin-4(5H)-one], the pIC50 was 6.69 at RET kinase V804M; 6.93 against G810S mutant RET kinase; 7.77 in experiment [1]; 6.84 against G810R mutant RET kinase; 6.75 in experiment [2]; 7.28 against RET kinase Wild Type.
In the case of `CC(C)n1c2c(c3c(N)ncnc31)-c1noc(C3CC3)c1S(=O)(=O)N(C)C2` [Example 22, 11-amino-3-cyclopropyl-7-isopropyl-5-methyl-6,7-dihydro-5H-isoxazolo[3,4-f]pyrimido[5′,4′:4,5]pyrrolo[2,3-d][1,2]thiazepine 4,4-dioxide], the pIC50 is 6.49 at RET kinase V804M; 7.12 on G810S mutant RET kinase; 7.19 in experiment [1]; 6.99 against G810R mutant RET kinase; 6.30 in experiment [2]; 7.51 at RET kinase Wild Type.
Regarding `CC(C)n1c2c(c3c(N)ncnc31)-c1noc(C3CC3)c1C(=O)OC2` [Example 24, 11-amino-3-cyclopropyl-7-isopropyl-6,7-dihydro-4H-isoxazolo[3″,4″:5′,6′]oxepino[4′,3′:4,5]pyrrolo[2,3-d]pyrimidin-4-one], the pIC50 at RET kinase V804M is 7.04; against G810S mutant RET kinase it was 7.06; in experiment [1], 7.40; on G810R mutant RET kinase, 7.15; in experiment [2], 6.74; against RET kinase Wild Type it was 7.60.
`COC1CCc2c(c3c(N)ncnc3n2C(C)C)-c2noc(C3CC3)c21` (racemic) [Example 53, 3-cyclopropyl-7-isopropyl-4-methoxy-4,5,6,7-tetrahydroisoxazolo[4″,3″:6′,7′]cyclohepta[1′,2′:4,5]pyrrolo[2,3-d]pyrimidin-11-amine]: the pIC50 at RET kinase V804M was 7.47; against G810S mutant RET kinase, 7.03; in experiment [1], 7.19; at G810R mutant RET kinase, 6.99; in experiment [2], 6.31; against RET kinase Wild Type, 7.80.
On to `CC(C)n1c2c(c3c(N)ncnc31)-c1ccc(C3CC3)cc1C(=O)NC2` [Example 47, 12-amino-3-cyclopropyl-8-isopropyl-7,8-dihydrobenzo[c]pyrimido[5′,4′:4,5]pyrrolo[3,2-e]azepin-5(6H)-one], for which the pIC50 is 5.03 at RET kinase V804M; 6.52 against G810S mutant RET kinase; 6.87 in experiment [1]; 6.57 against G810R mutant RET kinase; 5.71 in experiment [2]; 6.95 against RET kinase Wild Type.
As for `CCCN1Cc2c(c3c(N)ncnc3n2C(C)C)-c2noc(C3CC3)c2C1=O` [Example 4], the pIC50 on RET kinase V804M is 6.97; on G810S mutant RET kinase, 6.87; in experiment [1] it was 7.22; against G810R mutant RET kinase, 6.80; in experiment [2], 6.54; at RET kinase Wild Type it was 7.80.
For `CC(C)n1c2c(c3c(N)ncnc31)-c1ccc(Cl)cc1C(=O)NC2` [Example 45, 12-amino-3-chloro-8-isopropyl-7,8-dihydrobenzo[c]pyrimido[5′,4′:4,5]pyrrolo[3,2-e]azepin-5(6H)-one], the pIC50 against G810S mutant RET kinase was 6.25; in experiment [1] it was 6.46; against G810R mutant RET kinase it was 6.56; in experiment [2], 6.09; against RET kinase Wild Type, 6.71.
On to `CC(C)n1c2c(c3c(N)ncnc31)-c1cc3ccccc3n1C(=O)CC2` [Example 68, 1-amino-5-isopropyl-6,7-dihydropyrimido[5″,4″:4′,5′]pyrrolo[3′,2′:3,4]azepino[1,2-a]indol-8(5H)-one], for which the pIC50 on G810S mutant RET kinase is 5.93; in experiment [1], 5.75; against G810R mutant RET kinase, 6.31; in experiment [2] it was 5.32; against RET kinase Wild Type it was 6.41.
Regarding `CC(C)n1c2c(c3c(N)ncnc31)-c1noc(C3CC3)c1C=CC2` [Example 30, 3-cyclopropyl-7-isopropyl-6,7-dihydroisoxazolo[4″,3″:6′,7′]cyclohepta[1′,2′:4,5]pyrrolo[2,3-d]pyrimidin-11-amine], the pIC50 at RET kinase V804M was 6.59; against G810S mutant RET kinase, 6.52; in experiment [1], 6.81; at G810R mutant RET kinase, 6.74; in experiment [2], 5.67; at RET kinase Wild Type, 7.03.
In the case of `CC(C)n1c2c(c3c(N)ncnc31)-c1noc(C3CC3)c1CN(S(C)(=O)=O)C2` [Example 35, 3-cyclopropyl-7-isopropyl-5-(methylsulfonyl)-4,5,6,7-tetrahydroisoxazolo[4,3-c]pyrimido[5′,4′:4,5]pyrrolo[3,2-e]azepin-11-amine 2,2,2-trifluoroacetate], the pIC50 on RET kinase V804M was 6.94; on G810S mutant RET kinase it was 6.96; in experiment [1], 7.46; against G810R mutant RET kinase, 6.91; in experiment [2], 6.08; against RET kinase Wild Type it was 7.33.
For the compound `CC(C)n1c2c(c3c(N)ncnc31)-c1noc(C3CC3)c1C(=O)N(CCc1ccccc1)C2` [Example 8, 11-amino-3-cyclopropyl-7-isopropyl-5-phenethyl-6,7-dihydroisoxazolo[4,3-c]pyrimido[5′,4′:4,5]pyrrolo[3,2-e]azepin-4(5H)-one], the negative logarithm of the IC50 (pIC50) was 6.64 on RET kinase V804M; 6.91 on G810S mutant RET kinase; 7.04 in experiment [1]; 7.02 on G810R mutant RET kinase; 6.52 in experiment [2]; 7.39 against RET kinase Wild Type.
With `Cc1cc2n(n1)C(=O)NCc1c-2c2c(N)ncnc2n1C(C)C` [Example 105, 12-amino-8-isopropyl-2-methyl-7,8-dihydropyrazolo[1,5-c]pyrimido[5′,4′:4,5]pyrrolo[3,2-e][1,3]diazepin-5(6H)-one 2,2,2-trifluoroacetate], the negative logarithm of the IC50 (pIC50) on G810S mutant RET kinase was 5.59; in experiment [1], 5.87; at G810R mutant RET kinase it was 6.13; in experiment [2], 4.81; at RET kinase Wild Type, 6.19.
